Experimental findings from US8071642B2, “Dimethyl amino ethyl ether psoralens and methods for their production and use” (Rutgers, The State University of New Jersey, priority 2007, dated 2011) are described below.

Structures can show the parent of a compound that is named as a salt.

The subject of the test is PAM 212 keratinocytes. As to the kind of experiment: Photo-induced growth inhibition assay against PAM 212 keratinocytes (UVA activated). Format: cell-based. The following applies: 1.28 J/cm^2 UVA (320-400 nm), cells counted after 4-5 days of growth, read-out: IC50 (concentration at which photoactivated test compound inhibited growth by 50%). As for the experimental part: The photobiological activity was assayed using a keratinocyte cell line grown in a monolayer culture. In this assay, PAM 212 keratinocytes were grown in Dulbecco's Modified Eagle's medium supplemented with 10% newborn calf serum in a 5% carbon dioxide incubator. Cells were inoculated into 6-well Falcon plastic culture dishes at 25,000 cells per well. After 24 hours, the medium was charged to fresh growth medium supplemented with increasing concentrations of the test compounds or the control medium. Controls and test concentrations were analyzed in triplicate.
These plates were incubated in a 37° C. carbon dioxide incubator. After 30 minutes, culture plates were exposed to UVA light (UVA, 320-400 nm) emitted from a bank of four BLB fluorescence light tubes (F40 BL, Sylvania) placed approximately 10 cm above the cell culture plates. The incident light on the culture plates was 2.4 mW/cm^2 as measured with an International Light UV radiometer, Model IL442A). […]
After completion of the irradiation phase, the cell culture medium was drained, the cells were refed with fresh growth medium and then re-incubated with carbon dioxide incubator to allow for cell growth. […] The cells were detached from the plates with trypsin and counted in a Coulter Counter. For control cells or for cells treated with test compounds, cell growth was determined as a percentage of control.

As for “8-[2-(N,N-dimethylamino)ethoxyl-psoralen hydrochloride salt [Formula I (R=H, R1=H, A-B=—CH═CH—)]”, the IC50 was 0.012 µM.
Next, `CN(C)CCOc1c2c(cc3ccc(=O)oc13)CCO2` [Formula I R=H, R1=H, A-B=—CH2—CH2—, 8-[2-(N,N-dimethylamino)ethoxy]-4′,5′-dihydropsoralen hydrochloride salt]: 13 µM.
